System: Yop
Details: for percentage activity of Yop relative to control: 1 μM compound, phosphatase 0.1 nM, pNPP, average of three enzyme preparations ± S.D.

Row | Compound | inhibition of Yop (1 μM) [%] | percentage activity of Yop relative to control [%] | PTP inhibition of Yop at neutral pH (neutral pH, results not shown)
1 | Cn1nc2c(nc1=O)c(=O)n(C)c(=O)n2C [Compound 3, 2,8-dihydro-2,6,8-trimethyl-pyrimido[5,4-e]-1,2,4-triazine-3,5,7(6H)-trione] | ~90 | 10 ± 1.0 | continues to behave as a PTP inhibitor
2 | Cn1nc2c(nc1=O)n(C)c(=O)n2C [Compound 4, 2,5,7-trimethyl-2,7-dihydro-5H-imidazo[4,5-e]-1,2,4-triazine-3,6-dione] | – | 95 ± 4.0 | –
3 | [Na+].[Na+].[Na+].[O]=[V]([O-])([O-])[O-] [Na3VO4, sodium orthovanadate, reference compound] | – | 14 ± 1.0 | –

From patent US7199121B2, “Protein tyrosine phosphatase inhibitor” (Institute of Molecular and Cell Biology, priority 2000, dated 2007)
